Results: patent publication US20020028938A1, “Prostaglandin endoperoxide H synthase biosynthesis inhibitors” (priority 1997, published 2002)

Experiments:
[1] = target: T1, recombinant human Cox-1 (r-hu Cox1) (Homo sapiens, UniProt P23219); experiment: Recombinant human PGHS-1 enzyme assay (RHUCX1); format: biochemical; conditions: for inhibition at 100 µM / inhibition at 1 µM / inhibition at 10 µM: read-out: RHUCX1 % Inh. at Dose; for IC50: read-out: RHUCX1 IC50 (parenthetical value)
T1 construct: made in house; host or cells: baculovirus/Sf9 insect cells (microsomes)
Summary of the method: (§1)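 IC50 values come from linear regression of percent inhibition, itself calculated against the mean of untreated controls. The underlying signal is PGE2, determined by EIA after a brief room-temperature reaction (2.5 minutes) terminated with acid and then base-neutralized.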

[2] = target: T2, human amnionic whole cell cyclooxygenase-2 (WISH cells) (Homo sapiens, UniProt P35354); experiment: IL-1β induced PGE2 production in WISH cells; format: cell-based; conditions: for inhibition at 0.01 µM / inhibition at 0.1 µM: read-out: Wish % Inhib. at Dose; for IC50: read-out: Wish IC50 (parenthetical value)
T2 construct: endogenous in cells; host or cells: human amnionic WISH cells, induced with IL-1beta
T2 sequence (P35354 18-604): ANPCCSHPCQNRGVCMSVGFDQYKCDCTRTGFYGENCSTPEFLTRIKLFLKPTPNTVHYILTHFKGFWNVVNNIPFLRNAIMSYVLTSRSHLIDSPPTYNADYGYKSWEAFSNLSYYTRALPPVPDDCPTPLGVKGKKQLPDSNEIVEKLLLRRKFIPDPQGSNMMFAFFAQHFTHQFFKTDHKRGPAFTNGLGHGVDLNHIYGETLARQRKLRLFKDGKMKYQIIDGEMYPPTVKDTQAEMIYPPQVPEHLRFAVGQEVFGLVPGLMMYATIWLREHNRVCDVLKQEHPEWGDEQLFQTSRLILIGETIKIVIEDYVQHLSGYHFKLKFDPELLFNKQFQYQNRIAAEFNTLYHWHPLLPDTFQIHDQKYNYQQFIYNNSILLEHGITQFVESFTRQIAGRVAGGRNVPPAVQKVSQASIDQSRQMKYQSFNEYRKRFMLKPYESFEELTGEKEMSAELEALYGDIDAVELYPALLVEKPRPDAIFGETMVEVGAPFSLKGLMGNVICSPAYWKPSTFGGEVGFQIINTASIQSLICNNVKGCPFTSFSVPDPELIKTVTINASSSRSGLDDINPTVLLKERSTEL
Procedure: EIA reagents for prostaglandin determination were purchased from Perseptive Diagnostics, (Cambridge, Mass.). Prostaglandin E2 (PGE2) levels in lavage fluids were determined after the samples were dried under nitrogen and reconstituted with assay buffer. PGE2 levels in enzyme assays or cell culture media were measured against standards prepared in the same milieu. The immunoassays were conducted as recommended by the manufacturer. The EIA was conducted in 96 well microtiter plates (Nunc Roskilde, Denmark) and optical density was measured using a microplate reader (Vmax, Molecular Devices Corp., Menlo Park, Calif.).
Human amnionic WISH cells were grown to 80% confluence in 48 well plates. Following removal of the growth medium and two washings with Geys Balanced Salt Solutn, 5 ng IL-1β /ml (UBI, Lake Placid, N.Y.) was added to the cells with or without test compound in DMSO (0.01% v/v) in Neuman-Tytell Serumless Medium (GIBCO, Grand Island, N.Y.).

[3] = target: T3, Human Whole Platelet Cyclooxygenase-1 (Homo sapiens, UniProt P23219); experiment: Human Whole Platelet Cyclooxygenase-1 assay (HWPX); format: cell-based; conditions: for IC50: read-out: HWPX IC50 (parenthetical value)
T3 construct: from tissue; host or cells: human blood: isolated platelets (A4) or heparinised whole blood (A9)
Procedure: Blood from normal healthy volunteers is collected into tubes containing ACD (acid citrate dextrose) as the anticoagulant. This blood is centrifuged at 175×g to prepare platelet rich plasma. The platelet rich plasma is then centrifuged at 100×g to pellet the white blood cells, leaving the platelets in the supernatant. The supernatant is layered on a cushion of 0.7 mL of 10% bovine serum albumin in Tyrodes solution (Gibco; Grand Island, N.Y.) and then centrifuged at 1000×g. The resulting supernatant from this centrifuigation is then removed and 11 mL of Tyrodes solution is added to the remaining pellet of platelets. The platelets are then aliquoted at 120 μl into a 96 well plate. Experimental compounds are added and allowed to pre-incubate for 10 minutes. At the end of this pre-incubation period, the calcium ionophore A23187 is added to a final concentration of 8.8 μM and the incubation is continued for ten minutes. The reaction is stopped by adding cold 6 mM EDTA, the incubation mixture is centrifuged at 220×g, and the supernatants are then analyzed for thromboxane using a commercial kit from Cayman Chemical (Ann Arbor, Mich.

[4] = target: T4, recombinant human Cox-2 (r-hu Cox-2) (Homo sapiens, UniProt P35354); experiment: Recombinant human PGHS-2 enzyme assay (RHUCX2); format: biochemical; conditions: for IC50: read-out: RHUCX2 IC50 (parenthetical value)
T4 construct: made in house; host or cells: baculovirus/Sf9 insect cells (microsomes)
T4 sequence (P35354 18-604): T2 sequence (P35354 18-604)
Summary of the method: as §1

[5] = 10 μM, read-out: HWPX % Inhib. at Dose
[6] = 0.1 μM, read-out: RHUCX2 % Inh. at Dose
[7] = 1 μM, read-out: RHUCX2 % Inh. at Dose
[8] = 0.3 μM, read-out: HWPX % Inhib. at Dose

T1 sequence (P23219 24-599): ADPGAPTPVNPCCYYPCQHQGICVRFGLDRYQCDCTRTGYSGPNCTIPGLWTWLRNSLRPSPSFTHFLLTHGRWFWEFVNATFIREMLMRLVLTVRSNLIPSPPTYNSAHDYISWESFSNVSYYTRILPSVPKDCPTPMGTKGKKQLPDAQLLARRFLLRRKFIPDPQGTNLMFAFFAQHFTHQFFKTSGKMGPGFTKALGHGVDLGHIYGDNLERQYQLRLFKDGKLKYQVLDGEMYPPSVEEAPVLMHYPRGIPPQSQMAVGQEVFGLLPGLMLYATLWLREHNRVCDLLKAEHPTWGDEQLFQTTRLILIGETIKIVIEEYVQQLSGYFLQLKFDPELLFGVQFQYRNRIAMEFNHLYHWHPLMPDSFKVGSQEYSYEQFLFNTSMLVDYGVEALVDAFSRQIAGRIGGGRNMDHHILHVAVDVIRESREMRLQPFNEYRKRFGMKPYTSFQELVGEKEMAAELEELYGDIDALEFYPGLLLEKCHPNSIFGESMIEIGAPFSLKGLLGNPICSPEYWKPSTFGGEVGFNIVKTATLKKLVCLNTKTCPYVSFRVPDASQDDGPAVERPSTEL
T3 sequence (P23219 24-599): as above

Row | SMILES | inhibition at 100 µM ([1]; 100 μM) [%] | melting point [°C] | inhibition at 0.1 µM [4, 6] [%] | inhibition at 1 µM [4, 7] [%] | IC50 [2] [nM] | IC50 [3] [nM] | IC50 [4] [nM] | also measured
1 | CS(=O)(=O)c1ccc(-c2cnn(Cc3ccccc3)c(=O)c2-c2ccc(Cl)cc2)cc1 [Example 53, 2-Benzyl-4-(4-chlorophenyl)-5-[4-(methylsulfonyl)phenyl]-3(2H)-pyridazinone] | 10 | 157 to 159 | 77 | 99 |  |  |  | inhibition at 0.01 µM [2]: 44%; inhibition at 0.1 µM [2]: 90%; inhibition at 1 µM ([3]; 1 μM, read-out: HWPX % Inhib. at Dose): 8%; inhibition at 10 µM [3, 5]: 78%
2 | CC(/C=C/Cl)n1ncc(-c2ccc(S(N)(=O)=O)cc2)c(-c2ccc(F)cc2)c1=O (stereo not shown) [Example 140, 2-(3-Chloro-1-methyl-2E-propenyl)-4-(4-fluorophenyl)-5-[4-(aminosulfonyl)phenyl]-3(2H)-pyridazinone] |  |  |  |  | 10 | 773 | 22 | IC50 [1]: 3060 nM
3 | NS(=O)(=O)c1ccc(-c2cnn(CC(F)=C(F)F)c(=O)c2-c2ccc(F)cc2)cc1 [Example 141, 2-(2,3,3-Trifluoro-2-propen-1-yl)-4-(4-fluorophenyl)-5-[4-(aminosulfonyl)phenyl]-3(2H)-pyridazinone] | 55 | 173 to 175 | 95 | 99 | 4 |  |  | inhibition at 10 µM ([1]; 10 μM): 62%; inhibition at 0.3 µM [3, 8]: 56%
4 | C=C(F)C(F)(F)n1ncc(-c2ccc(S(N)(=O)=O)cc2)c(-c2ccc(F)cc2)c1=O [Example 142, 2-(1,1,2-Trifluoro-2-propenyl)-4-(4-fluorophenyl)-5-[4-(aminosulfonyl)phenyl]-3(2H)-pyridazinone] |  | 230 to 232 | 45 | 96 | 88 | 7530 |  | inhibition at 1 µM ([1]; 1 μM): 53%; inhibition at 10 µM ([1]; 10 μM): 80%; inhibition at 0.01 µM ([4]; 0.01 μM, read-out: RHUCX2 % Inh. at Dose): 32%
5 | NS(=O)(=O)c1ccc(-c2cnn(CC3=CCCCC3)c(=O)c2-c2ccc(F)cc2)cc1 [Example 145, 2-(1-Cyclohexenylmethyl)-4-(4-fluorphenyl)-5-[4-(aminosulfonyl)phenyl]-3(2H)-pyridazinone] |  |  |  |  | 9 |  |  | IC50 [1]: 238 nM; HWPX % Inhib. at Dose (μM) ([3]; 0.3 μM): 30 @ .3%; HWPX % Inhib. at Dose (μM) ([3]; 1 μM): 72 @ 1%; RHUCX2 % Inh. at Dose (μM) ([4]; 0.01 μM): 56 @ 0.01%; RHUCX2 % Inh. at Dose (μM) ([4]; 0.1 μM): 86 @ 0.1%
6 | CC(c1ccc(F)c(F)c1F)n1ncc(-c2ccc(S(N)(=O)=O)cc2)c(-c2ccc(F)cc2)c1=O (stereo not drawn) [Example 146, 2-(α-Methyl-2,3,4-trifluorobenzyl)-4-(4-fluorophenyl)-5-[4-(aminosulfonyl)phenyl]-3(2H)-pyridazinone] |  | 192 to 194 | 73 | 100 | 44 |  |  | inhibition at 1 µM ([1]; 1 μM): 53%; inhibition at 10 µM ([1]; 10 μM): 82%; inhibition at 3 µM ([3]; 3 μM, read-out: HWPX % Inhib. at Dose): 46%; inhibition at 10 µM [3, 5]: 84%
7 | C/C(=C\Cn1ncc(-c2ccc(S(N)(=O)=O)cc2)c(-c2ccc(F)cc2)c1=O)C(F)(F)F [Example 154] |  | 155 to 157 |  |  |  |  | 18 | IC50 [1]: 126 nM; inhibition at 0.01 µM [2]: 69%; inhibition at 0.1 µM [2]: 100%; inhibition at 0.1 µM ([3]; 0.1 μM, read-out: HWPX % Inhib. at Dose): 48%; inhibition at 0.3 µM [3, 8]: 81%

Second part, led by results:

Row | inhibition at 100 µM ([1]; 100 μM) [%] | melting point [°C] | inhibition at 0.1 µM [4, 6] [%] | inhibition at 1 µM [4, 7] [%] | IC50 [2] [nM] | IC50 [3] [nM] | IC50 [4] [nM] | SMILES | also measured
8 | 0 | 222 to 224 | 18 | 65 | 72 | 25000 |  | NS(=O)(=O)c1ccc(-c2cnn(-c3ccc(F)cc3)c(=O)c2-c2ccc(F)cc2)cc1F [Example 72, 2,4-Bis-(4-fluorophenyl)-5-[3-fluoro-4-(aminosulfonyl)phenyl]-3(2H)-pyridazinone] | 
9 |  | 249 to 251 | 61 |  | 20 | 130 |  | CS(=O)(=O)c1ccc(-c2cnn(-c3ccc(Cl)s3)c(=O)c2-c2ccc(Cl)cc2)cc1 [Example 100, 2-(5-Chloro-2-thienyl)-4-(4-chlorophenyl)-5-[4-(methylsulfonyl)phenyl]-3(2H)-pyridazinone] | inhibition at 1 µM ([1]; 1 μM): 65%; inhibition at 10 µM ([1]; 10 μM): 62%; inhibition at 10 µM ([4]; 10 μM, read-out: RHUCX2 % Inh. at Dose): 100%
10 |  |  |  |  | 18 |  |  | CS(=O)(=O)c1ccc(-c2cnn(-c3ccc([N+](=O)[O-])s3)c(=O)c2-c2ccc(F)cc2)cc1 [Example 105, 2-(5-Nitro-2-thienyl)-4-(4-fluorophenyl)-5-[4-(methylsulfonl)phenyl]-3(2H)-pyridazinone] | RHUCX1 % Inh. at Dose (μM) ([1]; 1 μM): 85 @ 1%; HWPX % Inhib. at Dose (μM) ([3]; 1 μM): 62 @ 1%; RHUCX2 % Inh. at Dose (μM) ([4]; 0.1 μM): 52 @ 0.1%; RHUCX2 % Inh. at Dose (μM) ([4]; 1 μM): 98 @ 1%
11 | 0 |  |  |  | 97 | 8000 | 279 | CS(=O)(=O)c1ccc(-c2cnn(-c3ccc(F)cc3)c(=O)c2Oc2ccc(F)cc2)cc1 [Example 108, 2-(4-Fluorophenyl)-4-(4-fluorophenoxy)-5-[4-(methylsulfonyl)phenyl]-3(2H)-pyridazinone] | 
12 |  | 139 to 141 | 64 | 100 | 29 |  |  | CC(c1cc(F)cc(F)c1)n1ncc(-c2ccc(S(N)(=O)=O)cc2)c(-c2ccc(F)cc2)c1=O (stereo not drawn) [Example 147, 2-(α-Methyl-3,5-difluorobenzyl)-4-(4-fluorophenyl)-5-[4-(aminosulfonyl)phenyl]-3(2H)-pyridazinone] | IC50 [1]: 67 nM; inhibition at 0.3 µM [3, 8]: 84%; inhibition at 0.03 µM ([4]; 0.03 μM, read-out: RHUCX2 % Inh. at Dose): 0%
13 |  |  |  |  | 30 |  | 3 | NS(=O)(=O)c1ccc(-c2cnn(Cc3cccc(F)c3)c(=O)c2-c2ccc(F)cc2)cc1 [Example 149, 2-(3-Fluorobenzyl)-4-(4-fluorophenyl)-5-[4-(aminosulfonyl)phenyl]-3(2H)-pyrdazinone] | RHUCX1 % Inh. at Dose (μM) ([1]; 1 μM): 40 @ 1%; RHUCX1 % Inh. at Dose (μM) ([1]; 10 μM): 45 @ 10%; HWPX % Inhib. at Dose (μM) ([3]; 3 μM): 34 @ 3%; HWPX % Inhib. at Dose (μM) ([3]; 10 μM): 89 @ 10%
14 | 0 | 232 to 235 |  |  | 30 | 1900 | 1080 | CS(=O)(=O)c1ccc(-c2cnn(-c3cccc(Cl)c3)c(=O)c2-c2ccc(F)cc2)cc1 [Example 165] | 
15 |  |  |  |  | 69 | 28100 |  | CS(=O)(=O)c1ccc(-c2cnn(-c3ccc(F)cc3)c(=O)c2COc2ccc(F)cc2)cc1 [Example 194, 2-(4-Fluorophenyl)-4-(4-fluolophenoxymethyl)-5-[4-(methylsulfonyl)phenyl]-3(2H)-pyridazinone] | RHUCX1 % Inh. at Dose (μM) ([1]; 100 μM): 35 @ 100%; RHUCX2 % Inh. at Dose (μM) ([4]; 0.1 μM): 72 @ 0.1%; RHUCX2 % Inh. at Dose (μM) ([4]; 1 μM): 73 @ 1%; RHUCX2 % Inh. at Dose (μM) ([4]; 10 μM): 90 @ 10%
